The target in this assay is MCH receptor (Homo sapiens, UniProt Q99705). Nature of the assay: High throughput functional screening FLIPR/FDSS6000: inhibition of MCH-evoked intracellular Ca2+ changes. The conditions noted are these: class by percent of control at 10^−7 M or by IC50; read-out: class. The assay is classed as cell-based. The method in brief: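 Seed cells the day before, then load them with Fluo4-AM for one hour at 37° C and wash in HEPES-buffered HBSS, pH 7.4. Add compound for 3 min, then stimulate with 50 nM MCH. Monitor the calcium transient for 290 s.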

As for `CN(C)c1nc(N[C@H]2CC[C@@H](NC(=O)Nc3cccc(Cl)c3Cl)CC2)nc2ccccc12` [Example 1013, N-(2,3-dichlorophenyl)-N′-(cis-4-{[4-(dimethylamino)quinazolin-2-yl]amino}cyclohexyl)urea], the IC50 was above 200 nM.
Take `CN(C)c1nc(N[C@H]2CC[C@@H](NC(=S)Nc3ccccc3Br)CC2)nc2ccccc12` [Example 1014, N-(2-bromophenyl)-N′-(cis-4-{[4-(dimethylamino)quinazolin-2-yl]amino}cyclohexyl)thiourea]: the IC50 is 50 to 200 nM.
With `COc1ccccc1NC(=O)NC[C@H]1CC[C@@H](Nc2nc(N(C)C)c3ccccc3n2)CC1` [Example 1015, N-[(cis-4-{[4-(dimethylamino)quinazolin-2-yl]amino}cyclohexyl)methyl]-N′-(2-methoxyphenyl)urea], the IC50 was in the range of 50 to 200 nM.
`CCOc1ccccc1NC(=O)NC[C@H]1CC[C@@H](Nc2nc(N(C)C)c3ccccc3n2)CC1` [Example 1016, N-[(cis-4-{[4-(dimethylamino)quinazolin-2-yl]amino}cyclohexyl)methyl]-N′-(2-ethoxyphenyl)urea]: the IC50 fell in the range of 50 to 200 nM.
As for `COc1cccc(NC(=O)NC[C@H]2CC[C@@H](Nc3nc(N(C)C)c4ccccc4n3)CC2)c1` [Example 1017, N-[(cis-4-{[4-(dimethylamino)quinazolin-2-yl]amino}cyclohexyl)methyl]-N′-(3-methoxyphenyl)urea], the IC50 is 50 to 200 nM.
As to `COc1ccc(NC(=O)NC[C@H]2CC[C@@H](Nc3nc(N(C)C)c4ccccc4n3)CC2)cc1OC` [Example 1018, N-(3,4-dimethoxyphenyl)-N′-[(cis-4-{[4-(dimethylamino)quinazolin-2-yl]amino}cyclohexyl)methyl]urea], the IC50 is above 200 nM.
As to `COc1ccc(NC(=O)NC[C@H]2CC[C@@H](Nc3nc(N(C)C)c4ccccc4n3)CC2)c(OC)c1` [Example 1019, N-(2,4-dimethoxyphenyl)-N′-[(cis-4-{[4-(dimethylamino)quinazolin-2-yl]amino}cyclohexyl)methyl]urea], the IC50 was in the range of 50 to 200 nM.
The result for `COc1ccc(OC)c(NC(=O)NC[C@H]2CC[C@@H](Nc3nc(N(C)C)c4ccccc4n3)CC2)c1` [Example 1020, N-(2,5-dimethoxyphenyl)-N′-[(cis-4-{[4-(dimethylamino)quinazolin-2-yl]amino}cyclohexyl)methyl]urea] reads 50 to 200 nM; that for `CN(C)c1nc(N[C@H]2CC[C@@H](CNC(=O)Nc3ccccc3Cl)CC2)nc2ccccc12` [Example 1021, N-(2-chlorophenyl)-N′-[(cis-4-{[4-(dimethylamino)quinazolin-2-yl]amino}cyclohexyl)methyl]urea], 50 to 200 nM.
As to `CN(C)c1nc(N[C@H]2CC[C@@H](CNC(=O)Nc3cccc(Cl)c3)CC2)nc2ccccc12` [Example 1022, N-(3-chlorophenyl)-N′-[(cis-4-{[4-(dimethylamino)quinazolin-2-yl]amino}cyclohexyl)methyl]urea], the IC50 is 50 to 200 nM.
The result for `CN(C)c1nc(N[C@H]2CC[C@@H](CNC(=O)Nc3ccc(Cl)cc3)CC2)nc2ccccc12` [Example 1023, N-(4-chlorophenyl)-N′-[(cis-4-{[4-(dimethylamino)quinazolin-2-yl]amino}cyclohexyl)methyl]urea] reads 50 to 200 nM; that for `CN(C)c1nc(N[C@H]2CC[C@@H](CNC(=O)Nc3cc(Cl)cc(Cl)c3)CC2)nc2ccccc12` [Example 1024, N-(3,5-dichlorophenyl)-N′-[(cis-4-{[4-(dimethylamino)quinazolin-2-yl]amino}cyclohexyl)methyl]urea], below 50 nM.
On to `CN(C)c1nc(N[C@H]2CC[C@@H](CNC(=O)Nc3c(Cl)cccc3Cl)CC2)nc2ccccc12` [Example 1025, N-(2,6-dichlorophenyl)-N′-[(cis-4-{[4-(dimethylamino)quinazolin-2-yl]amino}cyclohexyl)methyl]urea], for which the IC50 is below 50 nM.
The result for `CN(C)c1nc(N[C@H]2CC[C@@H](CNC(=O)Nc3ccc(Cl)c(Cl)c3)CC2)nc2ccccc12` [Example 1026, N-(3,4-dichlorophenyl)-N′-[(cis-4-{[4-(dimethylamino)quinazolin-2-yl]amino}cyclohexyl)methyl]urea] reads 50 to 200 nM; that for `CN(C)c1nc(N[C@H]2CC[C@@H](CNC(=O)Nc3cc(Cl)ccc3Cl)CC2)nc2ccccc12` [Example 1027, N-(2,5-dichlorophenyl)-N′-[(cis-4-{[4-(dimethylamino)quinazolin-2-yl]amino}cyclohexyl)methyl]urea], 50 to 200 nM.
The result for `CN(C)c1nc(N[C@H]2CC[C@@H](CNC(=O)Nc3cccc(Cl)c3Cl)CC2)nc2ccccc12` [Example 1028, N-(2,3-dichlorophenyl)-N′-[(cis-4-{[4-(dimethylamino)quinazolin-2-yl]amino}cyclohexyl)methyl]urea] reads below 50 nM; that for `CN(C)c1nc(N[C@H]2CC[C@@H](CNC(=O)Nc3ccc(Cl)cc3Cl)CC2)nc2ccccc12` [Example 1029, N-(2,4-dichlorophenyl)-N′-[(cis-4-{[4-(dimethylamino)quinazolin-2-yl]amino}cyclohexyl)methyl]urea], 50 to 200 nM; that for `CN(C)c1nc(N[C@H]2CC[C@@H](NC(=O)c3cccnc3Oc3ccccc3F)CC2)nc2ccccc12` [Example 1030, N-(cis-4-{[4-(dimethylamino)quinazolin-2-yl]amino}cyclohexyl)-2-(2-fluorophenoxy)nicotinamide], below 50 nM.
`CN(C)c1nc(N[C@H]2CC[C@@H](NC(=O)c3cccnc3Oc3ccccc3Cl)CC2)nc2ccccc12` [Example 1031, 2-(2-chlorophenoxy)-N-(cis-4-{[4-(dimethylamino)quinazolin-2-yl]amino}cyclohexyl)nicotinamide]: the IC50 is below 50 nM.
Consider `CN(C)c1nc(N[C@H]2CC[C@@H](NC(=O)c3cccnc3Oc3ccccc3Br)CC2)nc2ccccc12` [Example 1032, 2-(2-bromophenoxy)-N-(cis-4-{[4-(dimethylamino)quinazolin-2-yl]amino}cyclohexyl)nicotinamide], for which the IC50 was below 50 nM.
`CN(C)c1nc(N[C@H]2CC[C@@H](NC(=O)c3cccnc3Oc3ccccc3OC(F)(F)F)CC2)nc2ccccc12` [Example 1033, N-(cis-4-{[4-(dimethylamino)quinazolin-2-yl]amino}cyclohexyl)-2-[2-(trifluoromethoxy)phenoxy]nicotinamide]: the IC50 is below 50 nM.
For the molecule `CN(C)c1nc(N[C@H]2CC[C@@H](NC(=O)c3cccnc3Oc3cccc(F)c3)CC2)nc2ccccc12` [Example 1034, N-(cis-4-{[4-(dimethylamino)quinazolin-2-yl]amino}cyclohexyl)-2-(3-fluorophenoxy)nicotinamide], the IC50 was below 50 nM.
In the case of `COc1cccc(Oc2ncccc2C(=O)N[C@H]2CC[C@@H](Nc3nc(N(C)C)c4ccccc4n3)CC2)c1` [Example 1035, N-(cis-4-{[4-(dimethylamino)quinazolin-2-yl]amino}cyclohexyl)-2-(3-methoxyphenoxy)nicotinamide], the IC50 is below 50 nM.
The result for `CN(C)c1nc(N[C@H]2CC[C@@H](NC(=O)c3cccnc3Oc3cccc(OC(F)(F)F)c3)CC2)nc2ccccc12` [Example 1036, N-(cis-4-{[4-(dimethylamino)quinazolin-2-yl]amino}cyclohexyl)-2-[3-(trifluoromethoxy)phenoxy]nicotinamide] reads below 50 nM.
In the case of `CN(C)c1nc(N[C@H]2CC[C@@H](NC(=O)c3cccnc3Oc3ccc(OC(F)(F)F)cc3)CC2)nc2ccccc12` [Example 1037, N-(cis-4-{[4-(dimethylamino)quinazolin-2-yl]amino}cyclohexyl)-2-[4-(trifluoromethoxy)phenoxy]nicotinamide], the IC50 is below 50 nM.
Regarding `CN(C)c1nc(N[C@H]2CC[C@@H](NC(=O)c3cccnc3Oc3ccc(F)c(F)c3)CC2)nc2ccccc12` [Example 1038, 2-(3,4-difluorophenoxy)-N-(cis-4-{[4-(dimethylamino)quinazolin-2-yl]amino}cyclohexyl)nicotinamide], the IC50 is below 50 nM.
As for `COc1cc(OC)cc(Oc2ncccc2C(=O)N[C@H]2CC[C@@H](Nc3nc(N(C)C)c4ccccc4n3)CC2)c1` [Example 1039, 2-(3,5-dimethoxyphenoxy)-N-(cis-4-{[4-(dimethylamino)quinazolin-2-yl]amino}cyclohexyl)nicotinamide], the IC50 is below 50 nM.
With `COc1cccc(Oc2ncccc2C(=O)N[C@H]2CC[C@@H](Nc3nc(N(C)C)c4ccccc4n3)CC2)c1OC` [Example 1040, 2-(2,3-dimethoxyphenoxy)-N-(cis-4-{[4-(dimethylamino)quinazolin-2-yl]-amino}cyclohexyl)nicotinamide], the IC50 is below 50 nM.
Regarding `COc1cc(Oc2ncccc2C(=O)N[C@H]2CC[C@@H](Nc3nc(N(C)C)c4ccccc4n3)CC2)cc(OC)c1OC` [Example 1041, N-(cis-4-{[4-(dimethylamino)quinazolin-2-yl]amino}cyclohexyl)-2-(3,4,5-trimethoxyphenoxy)nicotinamide], the IC50 is below 50 nM.
The result for `CN(C)c1nc(N[C@H]2CC[C@@H](NC(=O)c3cccnc3Oc3ccc(Cl)c(F)c3)CC2)nc2ccccc12` [Example 1042, 2-(4-chloro-3-fluorophenoxy)-N-(cis-4-{[4-(dimethylamino)quinazolin-2-yl]amino}cyclohexyl)nicotinamide] reads below 50 nM; that for `CN(C)c1nc(N[C@H]2CC[C@@H](NC(=O)c3cccnc3Oc3ccc(F)c(Cl)c3)CC2)nc2ccccc12` [Example 1043, 2-(3-chloro-4-fluorophenoxy)-N-(cis-4-{[4-(dimethylamino)quinazolin-2-yl]amino}cyclohexyl)nicotinamide], below 50 nM; that for `COc1ccc(CN[C@@H]2CC[C@H](Nc3nc(N(C)C)c4ccccc4n3)C2)c(OC)c1` [Example 1044, N2-{(1S,3R)-3-[(2,4-dimethoxybenzyl)amino]cyclopentyl}-N4,N4-dimethylquinazoline-2,4-diamine], above 200 nM.
